# Experimental data from the supplement of paper PMC10307832.
# Compound: Cc1ccc(NC(=O)c2ccc(CN3CCN(C)CC3)cc2)cc1Nc1nc(-c2cccnc2)cs1 [Masitinib] + CS(=O)(=O)CCNCc1ccc(-c2ccc3ncnc(Nc4ccc(OCc5cccc(F)c5)c(Cl)c4)c3c2)o1 [Lapatinib] (partner 2 µM)
# Test: relative viability (nuclei count vs DMSO), 5 days (fraction); higher = more cells survive
# Details: first compound 0.01 µM
# Procedure, shortened: (§1)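 For relative viability, nuclei counts in treated wells were divided by those in vehicle wells. Lung cancer cell lines had been pin-tool dosed in 1536-well plates the day after seeding and cultured for 5 days, then fixed and stained in one step (final 0.05% Triton X-100, 1% formaldehyde, 1 ug/ml Hoechst) and imaged at 4×. Doses were one drug alone or a fixed anchor-drug dose plus five library-drug doses (not always all listed) in √10 steps, and values are duplicate-plate medians.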
row,Cell Line,relative viability
1,NCI-H838,0.808
2,NCI-H1651,0.831
3,EBC-1,0.191
4,NCI-H1734,0.915
5,NCI-H2009,0.567
6,LU99A,0.953
7,PC-14,0.286
8,NCI-H596,1.13
9,NCI-H2228,0.972
10,EMC-BAC-2,0.793

# Same assay, conditions: first compound 0.03162 µM
row,Cell Line,relative viability
1,NCI-H838,0.846
2,NCI-H1651,0.849
3,EBC-1,0.235
4,NCI-H1734,0.956
5,NCI-H2009,0.984
6,LU99A,1.1
7,PC-14,0.314
8,NCI-H596,1.2
9,NCI-H2228,1.32
10,EMC-BAC-2,0.911

# Same assay, conditions: first compound 0.1 µM
row,Cell Line,relative viability
1,NCI-H838,0.774
2,NCI-H1651,0.829
3,EBC-1,0.197
4,NCI-H1734,1.02
5,NCI-H2009,0.719
6,LU99A,1.05
7,PC-14,0.315
8,NCI-H596,1.07
9,NCI-H2228,1.14
10,EMC-BAC-2,0.837

# Same assay, conditions: first compound 0.3162 µM
row,Cell Line,relative viability
1,NCI-H838,0.794
2,NCI-H1651,0.908
3,EBC-1,0.196
4,NCI-H1734,0.85
5,NCI-H2009,0.834
6,LU99A,1.05
7,PC-14,0.185
8,NCI-H596,1.06
9,NCI-H2228,1.38
10,EMC-BAC-2,0.9

# Same assay, conditions: first compound 1 µM
row,Cell Line,relative viability
1,NCI-H838,1.02
2,NCI-H1651,0.854
3,EBC-1,0.21
4,NCI-H1734,1
5,NCI-H2009,0.9
6,LU99A,0.981
7,PC-14,0.309
8,NCI-H596,0.911
9,NCI-H2228,1.06
10,EMC-BAC-2,0.966

# Compound: CC1=CC(=CC=C1)NC2=NC(=CS2)C3=CC=NC=C3 + CS(=O)(=O)N1CCN(Cc2cc3nc(-c4cccc5[nH]ncc45)nc(N4CCOCC4)c3s2)CC1 [Pictilisib] (partner 1 µM)
# Test: as above
# Details: first compound 0.08 µM
# Procedure, shortened: as §1
row,Cell Line,relative viability
1,NCI-H838,0.382
2,NCI-H1651,0.476
3,EBC-1,0.187
4,NCI-H1734,0.479
5,NCI-H2009,0.724
6,PC-14,0.719
7,LCLC-103H,0.402
8,NCI-H596,0.347
9,NCI-H2228,0.413
10,EMC-BAC-2,0.449
11,ChaGo-K-1,0.697
12,NCI-H441,0.44

# Same assay, conditions: first compound 0.253 µM
row,Cell Line,relative viability
1,NCI-H838,0.334
2,NCI-H1651,0.651
3,EBC-1,0.216
4,NCI-H1734,0.499
5,NCI-H2009,0.837
6,LU99A,0.309
7,PC-14,0.666
8,LCLC-103H,0.54
9,NCI-H596,0.378
10,NCI-H2228,0.431
11,EMC-BAC-2,0.496
12,ChaGo-K-1,0.447
13,NCI-H441,0.529

# Same assay, conditions: first compound 0.8 µM
row,Cell Line,relative viability
1,NCI-H838,0.4
2,NCI-H1651,0.749
3,EBC-1,0.236
4,NCI-H1734,0.494
5,NCI-H2009,0.692
6,LU99A,0.306
7,PC-14,0.634
8,LCLC-103H,0.551
9,NCI-H596,0.34
10,NCI-H2228,0.281
11,EMC-BAC-2,0.53
12,ChaGo-K-1,0.691
13,NCI-H441,0.476

# Same assay, conditions: first compound 2.53 µM
row,Cell Line,relative viability
1,NCI-H838,0.288
2,NCI-H1651,0.465
3,EBC-1,0.303
4,NCI-H1734,0.588
5,NCI-H2009,0.856
6,LU99A,0.368
7,PC-14,0.752
8,LCLC-103H,0.572
9,NCI-H596,0.402
10,NCI-H2228,0.453
11,EMC-BAC-2,0.48
12,ChaGo-K-1,0.36
13,NCI-H441,0.489

# Same assay, conditions: first compound 8 µM
row,Cell Line,relative viability
1,NCI-H838,0.289
2,NCI-H1651,0.588
3,EBC-1,0.211
4,NCI-H1734,0.43
5,NCI-H2009,0.957
6,LU99A,0.326
7,PC-14,0.598
8,LCLC-103H,0.546
9,NCI-H596,0.264
10,NCI-H2228,0.359
11,EMC-BAC-2,0.554
12,ChaGo-K-1,0.639
13,NCI-H441,0.543

# Compound: CC1=CC(=CC=C1)NC2=NC(=CS2)C3=CC=NC=C3
# Test: relative viability (nuclei count vs DMSO), 5 days (fraction); higher = more cells survive
# Details: 0.08 µM
# Procedure, shortened: (§2)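 In 1536-well plates, lung cancer cell lines rested overnight at 37 °C before five library-drug doses (not always all listed), √10 apart, were pinned onto vehicle-anchored plates. Nuclei were counted with MetaXpress from 4× Hoechst images taken after 5 days without medium change. Viability compares treated-well with vehicle-well nuclei as a median over plates, and plates needed control CV below 25% plus at least one doubling to pass.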
row,Cell Line,relative viability
1,NCI-H522,0.894
2,NCI-H1623,0.948
3,NCI-H838,0.823
4,NCI-H1651,0.95
5,EBC-1,0.788
6,NCI-H1734,0.864
7,NCI-H2009,0.877
8,LU99A,0.877
9,PC-14,0.94
10,LCLC-103H,0.896
11,NCI-H596,0.917
12,NCI-H2228,0.838
13,EMC-BAC-2,0.834
14,NCI-H2342,0.96
15,ChaGo-K-1,0.997
16,SW 900,0.708
17,NCI-H1648,0.659
18,NCI-H441,0.957

# Same assay, conditions: 0.253 µM
row,Cell Line,relative viability
1,NCI-H522,0.886
2,NCI-H1623,0.886
3,NCI-H838,0.891
4,NCI-H1651,0.918
5,EBC-1,0.882
6,NCI-H1734,0.952
7,NCI-H2009,0.944
8,LU99A,0.917
9,PC-14,0.899
10,LCLC-103H,0.886
11,NCI-H596,0.883
12,NCI-H2228,0.948
13,EMC-BAC-2,0.712
14,NCI-H2342,0.929
15,ChaGo-K-1,1.01
16,SW 900,0.774
17,NCI-H1648,0.814
18,NCI-H441,1

# Same assay, conditions: 0.8 µM
row,Cell Line,relative viability
1,NCI-H522,0.931
2,NCI-H1623,0.894
3,NCI-H838,0.894
4,NCI-H1651,1.03
5,EBC-1,0.865
6,NCI-H1734,1.03
7,NCI-H2009,0.98
8,LU99A,0.972
9,PC-14,0.943
10,LCLC-103H,0.913
11,NCI-H596,0.86
12,NCI-H2228,0.784
13,EMC-BAC-2,1.01
14,NCI-H2342,0.95
15,ChaGo-K-1,0.973
16,SW 900,0.808
17,NCI-H1648,0.797
18,NCI-H441,1.01

# Same assay, conditions: 2.53 µM
row,Cell Line,relative viability
1,NCI-H522,0.925
2,NCI-H1623,0.81
3,NCI-H838,0.835
4,NCI-H1651,0.87
5,EBC-1,0.823
6,NCI-H1734,0.988
7,NCI-H2009,0.945
8,LU99A,0.997
9,PC-14,0.917
10,LCLC-103H,0.968
11,NCI-H596,0.948
12,NCI-H2228,0.91
13,EMC-BAC-2,0.838
14,NCI-H2342,0.93
15,ChaGo-K-1,1.03
16,SW 900,0.487
17,NCI-H1648,0.87
18,NCI-H441,0.922

# Same assay, conditions: 8 µM
row,Cell Line,relative viability
1,NCI-H522,1.15
2,NCI-H1623,0.84
3,NCI-H838,0.846
4,NCI-H1651,0.963
5,EBC-1,0.685
6,NCI-H1734,0.96
7,NCI-H2009,0.893
8,LU99A,0.956
9,PC-14,0.766
10,LCLC-103H,0.712
11,NCI-H596,0.803
12,NCI-H2228,0.726
13,EMC-BAC-2,0.885
14,NCI-H2342,0.881
15,ChaGo-K-1,0.814
16,SW 900,0.514
17,NCI-H1648,0.758
18,NCI-H441,0.866

# Compound: Cc1ccc(NC(=O)c2ccc(CN3CCN(C)CC3)cc2)cc1Nc1nc(-c2cccnc2)cs1 [Masitinib]
# Test: as above
# Details: 0.01 µM
# Procedure, shortened: as §2
row,Cell Line,relative viability
1,NCI-H522,1.06
2,NCI-H1623,0.982
3,NCI-H838,0.867
4,NCI-H1651,0.899
5,EBC-1,0.988
6,NCI-H1734,0.957
7,NCI-H2009,0.806
8,LU99A,1.03
9,PC-14,0.916
10,LCLC-103H,0.741
11,NCI-H596,0.934
12,NCI-H2228,0.998
13,EMC-BAC-2,0.78
14,NCI-H2342,1.03
15,ChaGo-K-1,1.17
16,SW 900,0.854
17,NCI-H1648,0.907
18,NCI-H441,1.01

# Same assay, conditions: 0.03162 µM
row,Cell Line,relative viability
1,NCI-H522,0.815
2,NCI-H1623,0.883
3,NCI-H838,0.855
4,NCI-H1651,0.97
5,EBC-1,0.946
6,NCI-H1734,1.08
7,NCI-H2009,0.991
8,LU99A,0.94
9,PC-14,0.943
10,LCLC-103H,1.01
11,NCI-H596,1.13
12,NCI-H2228,0.808
13,EMC-BAC-2,0.784
14,NCI-H2342,0.866
15,ChaGo-K-1,0.988
16,SW 900,0.881
17,NCI-H1648,0.599
18,NCI-H441,0.956

# Same assay, conditions: 0.1 µM
row,Cell Line,relative viability
1,NCI-H522,0.866
2,NCI-H1623,0.894
3,NCI-H838,0.955
4,NCI-H1651,0.954
5,EBC-1,1.2
6,NCI-H1734,1.06
7,NCI-H2009,0.922
8,LU99A,1.09
9,PC-14,1.01
10,LCLC-103H,0.757
11,NCI-H596,0.949
12,NCI-H2228,1.16
13,EMC-BAC-2,0.893
14,NCI-H2342,1.07
15,ChaGo-K-1,1.12
16,SW 900,0.778
17,NCI-H1648,1.01
18,NCI-H441,1.09

# Same assay, conditions: 0.3162 µM
row,Cell Line,relative viability
1,NCI-H522,1.07
2,NCI-H1623,0.889
3,NCI-H838,0.907
4,NCI-H1651,0.988
5,EBC-1,0.984
6,NCI-H1734,0.976
7,NCI-H2009,0.994
8,LU99A,1.06
9,PC-14,1.01
10,LCLC-103H,0.816
11,NCI-H596,0.901
12,NCI-H2228,1.04
13,EMC-BAC-2,0.937
14,NCI-H2342,0.889
15,ChaGo-K-1,1.1
16,SW 900,0.629
17,NCI-H1648,0.776
18,NCI-H441,1.25

# Same assay, conditions: 1 µM
row,Cell Line,relative viability
1,NCI-H522,0.974
2,NCI-H1623,0.905
3,NCI-H838,0.929
4,NCI-H1651,0.971
5,EBC-1,0.834
6,NCI-H1734,0.942
7,NCI-H2009,0.981
8,LU99A,0.916
9,PC-14,1.01
10,LCLC-103H,0.899
11,NCI-H596,0.837
12,NCI-H2228,1.06
13,EMC-BAC-2,0.927
14,NCI-H2342,0.843
15,ChaGo-K-1,0.984
16,SW 900,0.7
17,NCI-H1648,0.896
18,NCI-H441,1.07
